Five molecules from ChEMBL document CHEMBL3351354, “From the covalent linkage of drugs to novel inhibitors of ribonucleotide reductase: synthesis and biological evaluation of valproic esters of 3'-C-methyladenosine” (Bioorg Med Chem Lett, 2014) can be followed below.

The source made the active and inactive calls.

Data set [1] can be described thus: Growth inhibition of human HL60 cells after 48 hrs by MTT assay. Type of data set: functional, cell-based, HL-60. For orientation: Tetrazolium dyes change colour on reduction, which living cells bring about.
The subject of a further data set is K562. Briefly: Growth inhibition of human K562 cells after 48 hrs by MTT assay. It is filed as functional, cell-based.
In another data set the test system is HuT78. Description: Growth inhibition of human HUT78 cells after 48 hrs by MTT assay. It is filed as functional, cell-based.
A further data set deals with HT-29. Description: Growth inhibition of human HT-29 cells after 48 hrs by MTT assay. It is filed as functional, cell-based.
A further data set deals with MCF7. Briefly: Growth inhibition of human MCF7 cells after 48 hrs by MTT assay. It is filed as functional, cell-based.
The next data set concerns HeLa. Briefly: Growth inhibition of human HeLa cells after 48 hrs by MTT assay. It is filed as functional, cell-based.
Data set [2] is described as follows: Growth inhibition of human Caco2 cells after 48 hrs by MTT assay. Type of data set: functional, cell-based, Caco-2.
Data set [3] in a line: Cytotoxicity against human HL60 cells after 24 to 48 hrs by trypan blue dye exclusion method. The note with it: HL-60. It is filed as functional, cell-based.
Data set [4] has as its system HL-60. Briefly: Induction of apoptosis in human HL60 cells after 24 to 48 hrs by acridine orange and ethidium bromide staining based fluorescence microscopy. Type of data set: functional, cell-based. The note with it: Homo sapiens, HL-60; read-out: AC50.
Data set [5] has as its target T1, Histone deacetylase (Homo sapiens) (UniProt Q13547+O15379+Q9UBN7+Q92769+Q9UQL6+Q8WUI4+Q9BY41+Q96DB2+P56524+Q9UKV0+Q969S8). Briefly: Inhibition of HDAC in human HL60 cells assessed as increase in histone H3 acetylation at 1 mM after 24 hrs by Western blotting method. Type of data set: cell-based. The note with it: HL-60. On the technique in general: A western blot detects proteins with antibodies after separation by electrophoresis.

In data set [6] the test system is HL-60. Briefly: Induction of cell cycle arrest in human HL60 cells assessed as accumulation at G1 phase at 2 mM after 24 hrs by propidium iodide staining based flow cytometry (reference value: 32%). It is filed as functional. A general note: A flow cytometer gives signals particle by particle.
The subject of data set [7] is HL-60. Description: Induction of cell cycle arrest in human HL60 cells assessed as accumulation at S phase at 2 mM after 24 hrs by propidium iodide staining based flow cytometry (reference value: 54%). It is filed as functional.
Data set [8] has as its system HL-60. Briefly: Induction of cell cycle arrest in human HL60 cells assessed as accumulation at G2M phase at 2 mM after 24 hrs by propidium iodide staining based flow cytometry (reference value: 12%). Type of data set: functional.
For data set [9], the system named is HL-60. Briefly: Induction of cell cycle arrest in human HL60 cells assessed as accumulation at G1 phase at 5 mM after 24 hrs by propidium iodide staining based flow cytometry (reference value: 32%). It is filed as functional.
For data set [10], the system named is HL-60. Briefly: Induction of cell cycle arrest in human HL60 cells assessed as accumulation at S phase at 5 mM after 24 hrs by propidium iodide staining based flow cytometry (reference value: 54%). It is filed as functional.
Data set [11] deals with HL-60. Briefly: Induction of cell cycle arrest in human HL60 cells assessed as accumulation at G2M phase at 5 mM after 24 hrs by propidium iodide staining based flow cytometry (reference value: 12%). Type of data set: functional.
Data set [12] relates to HL-60. Description: Induction of ROS generation in human HL60 cells at 50 and 100 uM after 24 hrs by DCFH-DA staining based flow cytometry. It is filed as functional, cell-based.
Data set [13] relates to HL-60. Briefly: Induction of cell cycle arrest in human HL60 cells assessed as accumulation at G1 phase at 0.5 mM after 24 hrs by propidium iodide staining based flow cytometry (reference value: 32%). It is filed as functional.
The test system of data set [14] is HL-60. Description: Induction of cell cycle arrest in human HL60 cells assessed as accumulation at S phase at 0.5 mM after 24 hrs by propidium iodide staining based flow cytometry (reference value: 54%). Type of data set: functional.
The test system of data set [15] is HL-60. Briefly: Induction of cell cycle arrest in human HL60 cells assessed as accumulation at G2M phase at 0.5 mM after 24 hrs by propidium iodide staining based flow cytometry (reference value: 12%). Type of data set: functional.
Data set [16] concerns HL-60. Description: Cytotoxicity against human HL60 cells at 20 to 100 uM after 24 to 48 hrs in presence of 2 mM VPA by trypan blue dye exclusion method. Type of data set: functional, cell-based.
Data set [17] deals with HL-60. Description: Cytotoxicity against human HL60 cells at 20 to 100 uM after 24 to 48 hrs in presence of 1 mM VPA by trypan blue dye exclusion method. It is filed as functional, cell-based.
The subject of data set [18] is HL-60. Description: Induction of apoptosis in human HL60 cells at 20 uM in presence of 2 mM VPA after 24 to 48 hrs by acridine orange and ethidium bromide staining based fluorescence microscopy. It is filed as functional.
Data set [19] concerns HL-60. Description: Induction of apoptosis in human HL60 cells at 20 uM in presence of 1 mM VPA after 24 to 48 hrs by acridine orange and ethidium bromide staining based fluorescence microscopy. It is filed as functional, cell-based.
Data set [20] has as its system HL-60. Briefly: Induction of cell cycle arrest in human HL60 cells assessed as accumulation at G1 phase at 20 uM after 24 hrs by propidium iodide staining based flow cytometry (reference value: 32%). It is filed as functional.
For data set [21], the system named is HL-60. Description: Induction of cell cycle arrest in human HL60 cells assessed as accumulation at S phase at 20 uM after 24 hrs by propidium iodide staining based flow cytometry (reference value: 54%). Type of data set: functional.
Data set [22] relates to HL-60. Briefly: Induction of cell cycle arrest in human HL60 cells assessed as accumulation at G2M phase at 20 uM after 24 hrs by propidium iodide staining based flow cytometry (reference value: 12%). It is filed as functional.
Data set [23] concerns HL-60. Briefly: Induction of cell cycle arrest in human HL60 cells assessed as accumulation at G1 phase at 20 uM in presence of 2 mM VPA after 24 hrs by propidium iodide staining based flow cytometry (reference value: 32%). Type of data set: functional.
For data set [24], the system named is HL-60. Briefly: Induction of cell cycle arrest in human HL60 cells assessed as accumulation at S phase at 20 uM in presence of 2 mM VPA after 24 hrs by propidium iodide staining based flow cytometry (reference value: 54%). It is filed as functional.
Data set [25] concerns HL-60. Briefly: Induction of cell cycle arrest in human HL60 cells assessed as accumulation at G2M phase at 20 uM in presence of 2 mM VPA after 24 hrs by propidium iodide staining based flow cytometry (reference value: 12%). It is filed as functional.
Data set [26] is described as follows: Half life in RPMI-1640 medium containing 10% fetal calf serum assessed as compound disappearance by HPLC-DAD-ESI-MS method. It is filed as ADME, Bos taurus. The note with it: cattle.
Data set [27] concerns the target T1, Histone deacetylase (Homo sapiens). Description: Inhibition of HDAC in human HL60 cells assessed as increase in histone H3 acetylation at 10 and 100 uM after 24 hrs by Western blotting method. It is filed as cell-based. The note with it: HL-60.
Data set [28] concerns HL-60. Briefly: Induction of cell cycle arrest in human HL60 cells assessed as accumulation at G1 phase at 50 uM after 24 hrs by propidium iodide staining based flow cytometry (reference value: 32%). It is filed as functional.
Data set [29] concerns HL-60. Briefly: Induction of cell cycle arrest in human HL60 cells assessed as accumulation at S phase at 50 uM after 24 hrs by propidium iodide staining based flow cytometry (reference value: 54%). Type of data set: functional.
Data set [30] relates to HL-60. Briefly: Induction of cell cycle arrest in human HL60 cells assessed as accumulation at G2M phase at 50 uM after 24 hrs by propidium iodide staining based flow cytometry (reference value: 12%). Type of data set: functional.
In data set [31] the target is T1, Histone deacetylase (Homo sapiens). Description: Inhibition of HDAC in human HL60 cells assessed as increase in p21 expression at 50 uM after 24 hrs by flow cytometry. The note with it: HL-60. It is filed as cell-based.
Data set [32] concerns HL-60. Briefly: Induction of ROS generation in human HL60 cells at 2 and 5 mM after 24 hrs by DCFH-DA staining based flow cytometry. It is filed as functional, cell-based.
Data set [33] in a line: Half life in pH 7.4 isotonic sodium phosphate buffer at 37 degC by HPLC-DAD-ESI-MS method. Type of data set: physicochemical.
For data set [34], the target named is T2, Ribonucleotide reductase (Homo sapiens) (UniProt P23921+Q7LG56). Briefly: Inhibition of ribonucleotide reductase in human HL60 cells assessed as intracellular dNTP pools level at 50 uM after 1 hr by HPLC method. The note with it: HL-60. It is filed as cell-based.
For data set [35], the target named is T2, Ribonucleotide reductase (Homo sapiens). Description: Inhibition of human recombinant ribonucleotide reductase at 0.1 mM. It is filed as protein-complex assay.
The mark [36] stands for this setting: Homo sapiens, HL-60, 48 h, read-out: IC50.
[37] abbreviates: Homo sapiens, K562, 48 h, read-out: IC50.
Where [38] appears, read: Homo sapiens, HuT78, 48 h, read-out: IC50.
[39] abbreviates: Homo sapiens, HT-29, 48 h, read-out: IC50.
The mark [40] stands for this setting: Homo sapiens, MCF7, 48 h, read-out: IC50.
[41] abbreviates: Homo sapiens, HeLa, 48 h, read-out: IC50.
The mark [42] stands for this setting: Homo sapiens, Caco-2, 48 h, read-out: IC50.

Regarding `CCCC(CCC)C(=O)Nc1ncnc2c1ncn2[C@@H]1O[C@H](COC(=O)C(CCC)CCC)[C@@](C)(O)[C@H]1OC(=O)C(CCC)CCC`, the IC50 entry (in data set [1] (hl-60); in the data set with K562 (k562); with HuT78 (hut78); in the data set with HT-29 (ht-29); in the data set with MCF7 (mcf7); with HeLa (hela)) was “ND(Insoluble)” in each case. In addition, the IC50 (usually the concentration that gives 50% inhibition) in [2] (caco-2) is recorded as “ND(Insoluble)”.
`CCCC(CCC)C(=O)O` [VALPROIC ACID]: the concentration for half-maximal inhibition (IC50) is 1700 µM in data set [3]; 1700 µM in data set [1] (setting [36]); above 1000 µM in the data set with K562 (setting [37]); 1800 µM with HuT78 (setting [38]); above 1000 µM in the data set with HT-29 (setting [39]); 230 µM with MCF7 (setting [40]). Further, the results for the IC50 (with HeLa (setting [41]); in data set [2] (setting [42])) were 1000 µM and above 1000 µM, respectively. Besides, in the data set with HL-60 [4], the AC50 (in general, the midpoint of the concentration-response curve, whichever way the signal moves) is 2500 µM. Also, the inhibition result in data set [5] is “Active”. Moreover, the Activity in the data set on HL-60 [6] came out at 78%; with HL-60 [7], 8%; with HL-60 [8] it was 14%; in the data set with HL-60 [9], 39%; in the data set on HL-60 [10] it was 5%; in the data set with HL-60 [11], 55%. In the data set on HL-60 [12], the result was inactive.
With `NC(=O)NO` [HYDROXYUREA], the results for the Activity in the data set with HL-60 [13], in the data set with HL-60 [14] and with HL-60 [15] were 86%, 7% and 7%, respectively.
With `C[C@@]1(O)[C@@H](CO)O[C@@H](n2cnc3c(N)ncnc32)[C@@H]1O`, the IC50 was determined as 15 µM in [3]; 15.6 µM in data set [1] (setting [36]); 9.4 µM with K562 (setting [37]); 17.3 µM in the data set on HuT78 (setting [38]); 26.1 µM in the data set on HT-29 (setting [39]); 22.4 µM with MCF7 (setting [40]). Besides, the IC50 in the data set with HeLa (setting [41]) stood at 23.3 µM; in data set [2] (setting [42]), 24.3 µM. For the same molecule, the AC50 with HL-60 [4] was 75 µM. The outcome in the data set on HL-60 [16] and with HL-60 [19] was Active. The outcome in the data set on HL-60 [17] was inactive. The Activity with HL-60 [18] is 90%; in the data set with HL-60 [20] it was 31%; in the data set on HL-60 [21], 60%; in the data set on HL-60 [22], 9%; in the data set on HL-60 [23] it was 28%; in the data set with HL-60 [24], 61%. In the data set on HL-60 [25], the Activity was 11%. Besides, the half-life (usually the time needed for the level to fall by half in the phase considered) in data set [26] was 2610 min.
As for `CCCC(CCC)C(=O)OC[C@H]1O[C@@H](n2cnc3c(N)ncnc32)[C@H](OC(=O)C(CCC)CCC)[C@]1(C)O`, the AC50 in the data set with HL-60 [4] stood at 140 µM. Also, the concentration for half-maximal inhibition (IC50) in data set [1] (setting [36]) was determined as 16.3 µM; with K562 (setting [37]), 51.9 µM; in the data set on HuT78 (setting [38]), 30 µM; in the data set with HT-29 (setting [39]), 54.6 µM; in the data set on MCF7 (setting [40]) it was 57.8 µM; in the data set with HeLa (setting [41]) it was 54.4 µM. Moreover, the IC50 in data set [2] (setting [42]) was determined as 55.1 µM. Also, the inhibition entry in data set [27], in data set [31], in data set [34] and in data set [35] was “inactive” in each case. Moreover, the Activity is 71% in the data set with HL-60 [28], 29% in the data set on HL-60 [29] and 0% in the data set on HL-60 [30]. Besides, in the data set on HL-60 [32], the outcome was inactive. Besides, the half-life in data set [33] was above 3 days; in data set [26], above 4320 min.
